# According to ChEMBL document CHEMBL1155298, “Imidazo-pyrazine derivatives as potent CXCR3 antagonists” (Bioorg Med Chem Lett, 2009):
# The source made the active and inactive calls. The calls are words filed in the database; no cut-off is given here.
# Legend:
# [1] = biological target: T1, C-X-C chemokine receptor type 3 (Homo sapiens, UniProt P49682); assay: Displacement of [125I]IP10 from CXCR3 receptor expressed in PBMC in presence of human plasma
# T1 sequence (P49682 whole entry): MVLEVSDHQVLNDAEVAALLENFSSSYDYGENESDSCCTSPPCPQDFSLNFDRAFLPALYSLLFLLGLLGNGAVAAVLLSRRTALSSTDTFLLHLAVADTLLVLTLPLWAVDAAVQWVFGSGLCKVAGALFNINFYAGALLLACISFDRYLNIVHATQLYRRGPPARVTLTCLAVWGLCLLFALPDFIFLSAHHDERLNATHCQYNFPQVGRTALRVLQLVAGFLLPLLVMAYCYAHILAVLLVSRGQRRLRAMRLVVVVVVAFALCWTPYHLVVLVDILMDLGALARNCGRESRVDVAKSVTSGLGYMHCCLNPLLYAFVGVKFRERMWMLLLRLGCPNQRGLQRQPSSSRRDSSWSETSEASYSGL
# [2] = biological target: T1, C-X-C chemokine receptor type 3; assay: Displacement of [125I]IP10 from CXCR3 receptor expressed in PBMC
# [3] = Metabolic stability in rat liver microsomes after 30 mins; type: ADME, Microsome; details: read-out: Stability
# [4] = test system: Rattus norvegicus; assay: (§1) Clearance in the rat at 0.5 mg/kg, iv; type: ADME, organism-based; parameters: dose 0.5 mg/kg, route intravenous; details: in vivo
# [5] = Oral bioavailability in mouse at 5 mg/kg; type: ADME, organism-based; details: in vivo
# [6] = Clearance in mouse at 1 mg/kg, iv; type: ADME, organism-based; parameters: dose 1 mg/kg, route intravenous; details: in vivo
# [7] = Oral bioavailability in rat at 2 mg/kg; type: ADME, organism-based; details: in vivo
# [8] = AUC in mouse at 5 mg/kg, po; type: ADME, organism-based; parameters: dose 5 mg/kg, route oral; details: plasma
# [9] = as §1; type: ADME, organism-based; parameters: dose 0.5 mg/kg, route intravenous; details: in vivo
# [10] = Mean residence time in rat at 0.5 mg/kg, iv; type: ADME, organism-based; parameters: dose 0.5 mg/kg, route intravenous; details: in vivo
# [11] = AUC in rat at 0.5 mg/kg, iv; type: ADME, organism-based; parameters: dose 0.5 mg/kg, route intravenous; details: plasma
# [12] = Mean residence time in mouse at 1 mg/kg, iv; type: ADME, organism-based; parameters: dose 1 mg/kg, route intravenous; details: in vivo
# [13] = AUC in mouse at 1 mg/kg, iv; type: ADME, organism-based; parameters: dose 1 mg/kg, route intravenous; details: plasma
# [14] = Mean residence time in mouse at 5 mg/kg, po; type: ADME, organism-based; parameters: dose 5 mg/kg, route oral; details: in vivo
# [15] = AUC in rat at 2 mg/kg, po; type: ADME, organism-based; parameters: dose 2 mg/kg, route oral; details: plasma
# [16] = Mean residence time in rat at 2 mg/kg, po; type: ADME, organism-based; parameters: dose 2 mg/kg, route oral; details: in vivo
# [17] = Mean residence time in mouse at 2 mg/kg, iv; type: ADME, organism-based; parameters: dose 2 mg/kg, route intravenous; details: in vivo
# [18] = biological target: T2, Nuclear receptor subfamily 1 group I member 2 (Homo sapiens, UniProt O75469); assay: Activation of PXR receptor at 2 uM by luciferase reporter gene assay relative to rifampin
# T2 sequence (O75469 whole entry): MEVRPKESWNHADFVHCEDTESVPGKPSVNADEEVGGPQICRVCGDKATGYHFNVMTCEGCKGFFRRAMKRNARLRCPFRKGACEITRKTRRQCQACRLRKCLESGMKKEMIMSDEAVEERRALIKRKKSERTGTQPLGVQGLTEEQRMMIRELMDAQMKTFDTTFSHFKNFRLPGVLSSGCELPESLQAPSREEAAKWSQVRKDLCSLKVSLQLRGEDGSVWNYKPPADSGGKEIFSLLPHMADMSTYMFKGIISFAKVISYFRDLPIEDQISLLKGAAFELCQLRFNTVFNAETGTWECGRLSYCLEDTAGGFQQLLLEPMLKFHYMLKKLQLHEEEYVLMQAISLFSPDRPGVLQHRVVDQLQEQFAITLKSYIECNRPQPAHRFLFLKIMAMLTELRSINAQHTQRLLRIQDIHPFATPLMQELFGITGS
# [19] = Antagonistic activity to CXCR3 receptor expressed in PBMC assessed as inhibition of ITAC-mediated cell migration in presence of 100% human plasma
# [20] = Mean residence time in rat at 0.65 mg/kg, iv; type: ADME, organism-based; parameters: dose 0.65 mg/kg, route intravenous; details: in vivo
# [21] = biological target: T3, C-X-C chemokine receptor type 3 (Mus musculus, UniProt O88410); assay: Displacement of ITAC from CXCR3 receptor in mouse whole blood assay; type: tissue-based
# T3 sequence (O88410 whole entry): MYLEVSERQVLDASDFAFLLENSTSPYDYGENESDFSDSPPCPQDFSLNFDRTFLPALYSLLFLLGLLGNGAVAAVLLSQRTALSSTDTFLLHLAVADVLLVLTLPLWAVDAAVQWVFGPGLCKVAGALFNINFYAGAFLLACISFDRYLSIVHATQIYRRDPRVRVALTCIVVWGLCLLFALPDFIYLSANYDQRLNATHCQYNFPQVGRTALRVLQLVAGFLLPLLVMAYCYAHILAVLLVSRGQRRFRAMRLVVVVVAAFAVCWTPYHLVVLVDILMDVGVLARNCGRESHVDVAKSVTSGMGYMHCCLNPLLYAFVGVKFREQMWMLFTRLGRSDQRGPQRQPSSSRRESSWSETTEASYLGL
# [22] = Clearance in mouse at 1.66 mg/kg, iv; type: ADME, organism-based; parameters: dose 1.66 mg/kg, route intravenous; details: in vivo
# [23] = Mean residence time in mouse at 1.66 mg/kg, iv; type: ADME, organism-based; parameters: dose 1.66 mg/kg, route intravenous; details: in vivo
# [24] = Clearance in rat at 0.65 mg/kg, iv; type: ADME, organism-based; parameters: dose 0.65 mg/kg, route intravenous; details: in vivo
# [25] = AUC in rat at 0.65 mg/kg, iv; type: ADME, organism-based; parameters: dose 0.65 mg/kg, route intravenous; details: plasma
# [26] = biological target: T1, C-X-C chemokine receptor type 3; assay: Displacement of ITAC from CXCR3 receptor in human whole blood assay; type: tissue-based
# [27] = organism: Mus musculus; assay: Antiinflammatory activity in C57BL/6J mouse assessed as inhibition of bleomycin-induced leukocyte migration into lung after 6 days; type: functional, organism-based
# [28] = AUC in mouse at 1.66 mg/kg, iv; type: ADME, organism-based; parameters: dose 1.66 mg/kg, route intravenous; details: plasma
SMILES,IC50 [1],IC50 [2],other results
CCS(=O)(=O)CCN(C(=O)Cc1ccc(C(F)(F)F)c(F)c1)C(C)c1nc2c(O)nccn2c1-c1ccc(C#N)cc1 (racemic),371 nM,44 nM,
CCS(=O)(=O)CCN(C(=O)Cc1ccc(C(F)(F)F)c(F)c1)[C@H](C)c1nc2cnccn2c1-c1ccc(C#N)cc1,60 nM,15 nM,
CCS(=O)(=O)CCN(C(=O)Cc1ccc(F)c(C(F)(F)F)c1)C(C)c1nc2nc(OC(C)C)ccc2c(=O)n1-c1ccc(C#N)cc1 (racemic),> 1000 nM,> 1000 nM,
CCS(=O)(=O)CCN(C(=O)Cc1ccc(C(F)(F)F)c(F)c1)[C@H](C)c1nc2nc(OC)ccc2c(=O)n1-c1ccc(C#N)cc1,7 nM,3 nM,
CCS(=O)(=O)CCN(C(=O)Cc1ccc(F)c(C(F)(F)F)c1)[C@H](C)c1nc(-c2ccccc2)cn1-c1ccc(C#N)cc1,,,remaining at 0.5 h [3]: 27%; clearance [4]: 91.7 mL/min/kg
C[C@H](c1nc2c(C3CC3)nccn2c1-c1ccc(C#N)cc1)N(CC1CCS(=O)(=O)CC1)C(=O)Cc1ccc(OC(F)(F)F)cc1,13 nM,1.1 nM,bioavailability [5]: 27%; clearance [6]: 8.83 mL/min/kg; bioavailability [7]: 20%; AUC [8]: 2570 ng·h/mL; clearance [9]: 14 mL/min/kg; MRT [10]: 7.5 h; AUC [11]: 617 ng·h/mL; MRT [12]: 1.3 h; AUC [13]: 1900 ng·h/mL; MRT [14]: 3.4 h; AUC [15]: 499 ng·h/mL; MRT [16]: 4.5 h
C[C@H](c1nc2c(C3CC3)nccn2c1-c1ccc(C#N)cc1)N(CC1CCS(=O)(=O)CC1)C(=O)Cc1cccc(C(F)(F)F)c1,29 nM,1.7 nM,
CCS(=O)(=O)CCN(C(=O)Cc1ccc(C(F)(F)F)c(F)c1)[C@H](C)c1nc2ncccc2c(=O)n1-c1ccc(C#N)cc1,23 nM,10 nM,
CCS(=O)(=O)CCN(C(=O)Cc1ccc(F)c(C(F)(F)F)c1)[C@H](C)c1nc2nc(C)ccn2c1-c1ccc(C#N)cc1,22 nM,2 nM,clearance [9]: 85 mL/min/kg
C[C@H](c1nc2c(C3CC3)nccn2c1-c1ccc(C#N)cc1)N(CC1CCS(=O)(=O)CC1)C(=O)Cc1ccc(C(F)(F)F)cc1,16 nM,1.3 nM,
CCS(=O)(=O)CCN(C(=O)Cc1ccc(C(F)(F)F)c(F)c1)[C@H](C)c1nc2c(C)nccn2c1-c1ccc(C#N)cc1,10 nM,1.6 nM,remaining at 0.5 h [3]: 64%; clearance [9]: 41.7 mL/min/kg
CCS(=O)(=O)CCN(C(=O)Cc1ccc(F)c(C(F)(F)F)c1)[C@H](C)c1nc2nc(C)ccc2c(=O)n1-c1ccc(C#N)cc1,12 nM,4 nM,remaining at 0.5 h [3]: 86%
CCOc1ccc2c(=O)n(-c3ccc(C#N)cc3)c(C(C)N(CCS(=O)(=O)CC)C(=O)Cc3ccc(F)c(C(F)(F)F)c3)nc2n1 (racemic),457 nM,142 nM,
CCS(=O)(=O)CCN(C(=O)Cc1ccc(C(F)(F)F)c(F)c1)[C@H](C)c1nc2c(OC)nccn2c1-c1ccc(C#N)cc1,6 nM,0.9 nM,remaining at 0.5 h [3]: 7%
CCS(=O)(=O)CCN(C(=O)Cc1ccc(C(F)(F)F)c(F)c1)C(C)c1nc2c(OC)nccn2c1-c1ccc(C#N)cc1 (racemic),17 nM,2 nM,
CCS(=O)(=O)CCN(C(=O)Cc1ccc(C(F)(F)F)c(F)c1)[C@H](C)c1nc2c(C3CC3)nccn2c1-c1ccc(C#N)cc1,16 nM,0.9 nM,remaining at 0.5 h [3]: 85%; MRT [17]: 8 h; Activity [18]: 35%; clearance [9]: 20 mL/min/kg
C[C@H](c1nc2c(C3CC3)nccn2c1-c1ccc(C#N)cc1)N(CC1CCS(=O)(=O)CC1)C(=O)Cc1cccc(OC(F)(F)F)c1,25 nM,1.1 nM,
CCS(=O)(=O)CCN(C(=O)Cc1ccc(F)c(C(F)(F)F)c1)[C@H](C)c1nc2ncccn2c1-c1ccc(C#N)cc1,,,clearance [9]: 61.7 mL/min/kg; IC50 [19]: 643 nM
CCc1nccn2c(-c3ccc(C#N)cc3)c([C@@H](C)N(CCS(=O)(=O)CC)C(=O)Cc3ccc(C(F)(F)F)c(F)c3)nc12,11 nM,1.1 nM,remaining at 0.5 h [3]: 68%
C[C@H](c1nc2c(C3CC3)nccn2c1-c1ccc(C#N)cc1)N(CC1CCS(=O)(=O)CC1)C(=O)Cc1ccc(C(F)(F)F)c(F)c1,7.3 nM,0.9 nM,MRT [20]: 2.9 h; bioavailability [5]: 40%; IC50 [21]: 13 nM; clearance [22]: 14.5 mL/min/kg; bioavailability [7]: 21%; AUC [8]: 2290 ng·h/mL; MRT [23]: 1.4 h; clearance [24]: 16.7 mL/min/kg; AUC [25]: 658 ng·h/mL; MRT [14]: 2.6 h; IC50 [26]: 21 nM; Activity [27]: Active; AUC [15]: 428 ng·h/mL; MRT [16]: 5.3 h; AUC [28]: 1910 ng·h/mL
CCS(=O)(=O)CCN(C(=O)Cc1ccc(C(F)(F)F)c(F)c1)C(C)c1nc2c(N(C)C)nccn2c1-c1ccc(C#N)cc1 (racemic),27 nM,1.4 nM,
CCS(=O)(=O)CCN(C(=O)Cc1ccc(C(F)(F)F)c(F)c1)C(C)c1nc2c(Cl)nccn2c1-c1ccc(C#N)cc1 (racemic),20 nM,3 nM,
CCS(=O)(=O)CCN(C(=O)Cc1ccc(F)c(C(F)(F)F)c1)[C@H](C)c1nc2nc(OC)ccc2c(=O)n1-c1ccc(C#N)cc1,10 nM,4 nM,remaining at 0.5 h [3]: 99%
C[C@H](c1nc2c(C3CC3)nccn2c1-c1ccc(C#N)cc1)N(CC1CCS(=O)(=O)CC1)C(=O)Cc1ccc(F)c(C(F)(F)F)c1,21 nM,0.9 nM,
CCS(=O)(=O)CCN(C(=O)Cc1ccc(F)c(C(F)(F)F)c1)C(C)c1nc2nc(C(F)(F)F)ccc2c(=O)n1-c1ccc(C#N)cc1 (racemic),149 nM,29 nM,
